{
  "source": "patent US10894787B2",
  "about": "“Modulators of the GPR119 receptor and the treatment of disorders related thereto” (Arena Pharmaceuticals, Inc., priority 2010, dated 2021)",
  "tested_on": "male 129SVE mice",
  "assay": "Oral glucose tolerance test (oGTT) in male 129SVE mice",
  "assay_type": "in vivo, mouse",
  "conditions": "for Plasma Glucose Mean: N = 6; for % Inhibition of Glucose Excursion: AUC reduction relative to vehicle control",
  "method": "Male 129SVE mice (approximately 8-week old) were fasted for 18 h and randomly grouped (n=6) to receive a GPR119 agonist, (Compound 1), at 0.3, 3, or 30 mg/kg (mg/kg body weight). The compound was delivered orally via a gavage needle (p.o., volume 4 mL/kg) 30 min prior to glucose bolus (3 g/kg) (time=−30 min in FIG. 3), with a separate group receiving vehicle (20% hydroxypropyl-beta-cyclodextrin) as control. At time 0 min. the glucose bolus was administered. Levels of blood glucose were assessed using a glucometer (One-Touch Ultra™, LifeScan) at time −30 minute (prior to compound administration), at 0 min (at time when glucose bolus was given), and at 20, 40, 60, 120 min post glucose bolus. Glucose excursion (AUC (area under the curve) reduction) in compound treated animals relative to vehicle control is given in FIG. 4, and in Table 4.",
  "data": [
    {"compound": "CN(C)C(=O)c1ccc(Nc2ncnc(N3CCC(c4nc(C(C)(C)F)no4)CC3)c2F)c(F)c1", "note": "[Compound 1, 3-fluoro-4-(5-fluoro-6-(4-(3-(2-fluoropropan-2-yl)-1,2,4-oxadiazol-5-yl)piperidin-1-yl)pyrimidin-4-ylamino)-N,N-dimethylbenzamide]", "values": [
      {"measurement": "Plasma Glucose Mean", "setting": "0.3 mg/kg p.o. 30 min prior to glucose bolus, time 0 min", "result": 74.2, "unit": "mg/dL"},
      {"measurement": "Plasma Glucose Mean", "setting": "0.3 mg/kg p.o., 20 min post glucose bolus", "result": 221.3, "unit": "mg/dL"},
      {"measurement": "Plasma Glucose Mean", "setting": "0.3 mg/kg p.o., 40 min post glucose bolus", "result": 274.8, "unit": "mg/dL"},
      {"measurement": "Plasma Glucose Mean", "setting": "0.3 mg/kg p.o., 60 min post glucose bolus", "result": 258.2, "unit": "mg/dL"},
      {"measurement": "Plasma Glucose Mean", "setting": "0.3 mg/kg p.o., 120 min post glucose bolus", "result": 154.5, "unit": "mg/dL"},
      {"measurement": "% Inhibition of Glucose Excursion", "setting": "0.3 mg/kg p.o., 129SVE mice", "result": 16.9, "unit": "%"},
      {"measurement": "Plasma Glucose Mean", "setting": "0.3 mg/kg p.o., time -30 min (prior to compound administration)", "result": 58.5, "unit": "mg/dL"},
      {"measurement": "Plasma Glucose Mean", "setting": "3.0 mg/kg p.o. 30 min prior to glucose bolus, time 0 min", "result": 75.2, "unit": "mg/dL"},
      {"measurement": "Plasma Glucose Mean", "setting": "3.0 mg/kg p.o., 20 min post glucose bolus", "result": 206.7, "unit": "mg/dL"},
      {"measurement": "Plasma Glucose Mean", "setting": "3.0 mg/kg p.o., 40 min post glucose bolus", "result": 233.0, "unit": "mg/dL"},
      {"measurement": "Plasma Glucose Mean", "setting": "3.0 mg/kg p.o., 60 min post glucose bolus", "result": 213.5, "unit": "mg/dL"},
      {"measurement": "Plasma Glucose Mean", "setting": "3.0 mg/kg p.o., 120 min post glucose bolus", "result": 138.2, "unit": "mg/dL"},
      {"measurement": "% Inhibition of Glucose Excursion", "setting": "3 mg/kg p.o., 129SVE mice", "result": 34.8, "unit": "%"},
      {"measurement": "Plasma Glucose Mean", "setting": "3.0 mg/kg p.o., time -30 min (prior to compound administration)", "result": 63.5, "unit": "mg/dL"},
      {"measurement": "Plasma Glucose Mean", "setting": "30.0 mg/kg p.o. 30 min prior to glucose bolus, time 0 min", "result": 78.7, "unit": "mg/dL"},
      {"measurement": "Plasma Glucose Mean", "setting": "30.0 mg/kg p.o., 20 min post glucose bolus", "result": 185.8, "unit": "mg/dL"},
      {"measurement": "Plasma Glucose Mean", "setting": "30.0 mg/kg p.o., 40 min post glucose bolus", "result": 216.0, "unit": "mg/dL"},
      {"measurement": "Plasma Glucose Mean", "setting": "30.0 mg/kg p.o., 60 min post glucose bolus", "result": 191.7, "unit": "mg/dL"},
      {"measurement": "Plasma Glucose Mean", "setting": "30.0 mg/kg p.o., 120 min post glucose bolus", "result": 138.7, "unit": "mg/dL"},
      {"measurement": "% Inhibition of Glucose Excursion", "setting": "30 mg/kg p.o., 129SVE mice", "result": 42.1, "unit": "%"},
      {"measurement": "Plasma Glucose Mean", "setting": "30.0 mg/kg p.o., time -30 min (prior to compound administration)", "result": 64.5, "unit": "mg/dL"},
      {"measurement": "Effect on blood glucose after a challenge with glucose", "setting": "129SVE mice, 0.3-30 mg/kg p.o.", "result": "lowered blood glucose"}
    ]}
  ]
}
